# From US10941137B2, “Difluoromethyl-phenyl triazoles” (Boehringer Ingelheim International GmbH, priority 2018, dated 2021)
# Molecular target: T1, human GABAA α5β3γ2s receptor (Homo sapiens, UniProt P18507+P31644)
# T1 sequence (P18507 1-475): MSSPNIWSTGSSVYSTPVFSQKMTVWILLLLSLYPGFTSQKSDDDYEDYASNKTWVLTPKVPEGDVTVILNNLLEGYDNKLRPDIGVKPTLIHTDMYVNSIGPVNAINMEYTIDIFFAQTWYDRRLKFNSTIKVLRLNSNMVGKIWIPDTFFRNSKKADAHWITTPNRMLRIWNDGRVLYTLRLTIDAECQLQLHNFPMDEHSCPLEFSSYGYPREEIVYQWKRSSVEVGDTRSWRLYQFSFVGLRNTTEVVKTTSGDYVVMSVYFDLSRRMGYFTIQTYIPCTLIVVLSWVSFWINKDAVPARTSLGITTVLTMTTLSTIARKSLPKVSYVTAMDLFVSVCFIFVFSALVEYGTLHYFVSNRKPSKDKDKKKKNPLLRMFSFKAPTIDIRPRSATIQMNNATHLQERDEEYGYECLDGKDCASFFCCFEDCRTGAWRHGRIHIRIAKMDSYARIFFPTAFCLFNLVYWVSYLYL
# T1 sequence (P31644 1-462): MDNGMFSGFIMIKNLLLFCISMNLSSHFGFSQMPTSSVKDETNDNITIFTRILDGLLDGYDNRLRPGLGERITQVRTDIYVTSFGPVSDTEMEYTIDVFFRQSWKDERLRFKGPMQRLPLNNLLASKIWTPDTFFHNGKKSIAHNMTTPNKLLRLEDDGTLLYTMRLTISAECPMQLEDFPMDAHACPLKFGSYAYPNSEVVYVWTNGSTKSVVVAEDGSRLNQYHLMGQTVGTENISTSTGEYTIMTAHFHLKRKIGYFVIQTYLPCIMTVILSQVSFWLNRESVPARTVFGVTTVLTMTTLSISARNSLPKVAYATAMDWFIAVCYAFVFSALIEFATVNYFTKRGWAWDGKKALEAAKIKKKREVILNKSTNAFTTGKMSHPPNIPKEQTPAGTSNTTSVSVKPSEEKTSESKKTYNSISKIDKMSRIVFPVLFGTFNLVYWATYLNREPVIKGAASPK
# Assay: Assay A: in vitro inhibition of 3H-flumazenil binding, HEK cells expressing human GABAA α5β3γ2s receptor
# Settings: 3H-flumazenil 1 nM, HEK-293 membranes, 40 min at 2° C.; Ki from IC50 by Cheng and Prusoff
# Protocol: HEK-293 cell lines with stable expression of recombinant human GABAA α5β3γ2s receptors (plasmid H46/E9/B10) are seeded in T175 polystyrene flasks or roller bottles (1700 cm^2, Fisher Scientific CCI-431191), and cultured (37 C, 5% CO˜) in Dulbecco's Modified Eagle Medium (DMEM) with GlutaMAX™ supplemented with 10% fetal bovine serum and one or both of the following antibiotics: hygromycin B ([…]; γ2 subunit) or G418 (0.5 mg/ml; […]).
# When the cultures reach confluency, the DMEM is removed and the cells are washed (10 ml for T175 flasks; 50 ml for roller bottles) once in Dulbecco's Phosphate Buffered Saline (DPBS). Following addition of DPBS to the cultures (10 ml for T175 flasks; 100 ml for roller bottles) for approximately 5 min cells are easily detached from the surface by shaking or tapping the flask gently. The cell suspension is transferred to Falcon tubes and centrifuged at 23,500×g for 10 min at 2° C. The pellet is washed once in 15 ml Tris-citrate buffer (50 mM, pH 7.1) using an Ultra-Turrax homogenizer and centrifuged at 2° C. for 10 min at 27,000×g. The washed pellet is re-suspended in 15 ml Tris-citrate buffer and frozen at −80° C. until the day of the binding experiment.
# On the day of the experiment the cell membrane preparation is thawed and centrifuged at 2° C. for 10 min at 27,000×g. The pellet is re-suspended, using an Ultra-Turrax homogenizer in Tris-citrate buffer, to 15-50 µg protein per assay and then used for binding assays.
# Non-specific binding is determined using clonazepam (1 μM, final concentration).
# All dilutions of test compounds and incubation of assay are performed in glass vials/96-vial plates. […] Compounds are dissolved in 100% DMSO (10 mM stock), diluted in 48% ethanol-water, and tested in triplicate in serial 1:3 or 1:10 dilutions. When screening large numbers of compounds only one concentration of each compound is tested in single wells. Reference compounds are not included routinely, but for each experiment performed total and nonspecific binding is compared to data obtained during validation of the assay.
# Binding is either terminated by rapid filtration onto
# 1) Whatman GF/C glass fibre filters using a Brandel Cell harvester, followed by 5 washes with 1 ml ice-cold buffer or onto 2) UniFilter GF/C glass fibre filter plates using a Tomtec cell harvester, followed by washing with approximately 5 ml ice-cold buffer.
# The amount of radioactivity on the filters is determined by conventional liquid scintillation counting using a
# 1) Tri-Garb™ counter (PerkinElmer Life and Analytical Sciences) for separate large filters or
# 2) Topcount™ counter (PerkinElmer Life and Analytical Sciences) for 96-well filter plates. Specific binding is total binding minus non-specific binding.
# For screening purposes n is set to 1. The IC50 value is calculated from the concentration response curves by the non-linear regression method using the curve-fitting program GraphPad Prism. […]
row,Structure (SMILES),Ki [nM]
1,Cc1nnn(-c2ccc(C(F)F)cc2)c1COc1ccc(-n2ccc(C(F)(F)F)n2)nn1 [Example 24],0.25
2,Cc1nnn(-c2ccc(C(F)F)cc2)c1COc1ccc(-n2cc3c(n2)CCNC3=O)nn1 [Example 26],0.12
3,COc1ncc(-c2ccc(OCc3c(C)nnn3-c3ccc(C(F)F)cc3)nn2)cn1 [Example 3],0.16
4,Cc1ncc(-c2ccc(OCc3c(C)nnn3-c3ccc(C(F)F)cc3)nn2)o1 [Example 6],0.11
5,Cc1nnn(-c2ccc(C(F)F)cc2)c1COc1ccc(-c2cncc(-n3ccnc3)c2)nn1 [Example 8],0.055
6,CCn1cc(-c2ccc(OCc3c(C)nnn3-c3ccc(C(F)F)cc3)nn2)cn1 [Example 7],0.032
7,Cc1nnn(-c2ccc(C(F)F)cc2)c1COc1ccc(-c2cnc(OCC(C)(C)O)nc2)nn1 [Example 4],0.87
8,"Cc1nnn(-c2ccc(C(F)F)cc2)c1COc1ccc(-c2ccnc(O)c2)nn1 [Example 2, 4-[6-({1-[4-(difluoromethyl)phenyl]-4-methyl-1H-1,2,3-triazol-5-yl}methoxy)pyridazin-3-yl]pyridin-2-ol]",0.086
9,"Cc1n[nH]c(C)c1-c1ccc(OCc2c(C)nnn2-c2ccc(C(F)F)cc2)nn1 [Example 12, 3-({1-[4-(difluoromethyl)phenyl]-4-methyl-1H-1,2,3-triazol-5-yl}methoxy)-6-(3,5-dimethyl-1H-pyrazol-4-yl)pyridazine]",0.9
10,Cc1cc(-c2ccc(OCc3c(C)nnn3-c3ccc(C(F)F)cc3)nn2)cnn1 [Example 11],0.058
11,Cc1nnn(-c2ccc(C(F)F)cc2)c1COc1ccc(-c2cncnc2)nn1 [Example 22],0.11
12,Cc1nnn(-c2ccc(C(F)F)cc2)c1COc1ccc(-c2cnn(C3CC3)c2)nn1 [Example 9],0.25
13,"Cc1nnn(-c2ccc(C(F)F)cc2)c1COc1ccc(-n2cnc(C[N+](C)(C)C)c2)nn1.O=C([O-])C(F)(F)F [Example 36, ({1-[6-({1-[4-(difluoromethyl)phenyl]-4-methyl-1H-1,2,3-triazol-5-yl}methoxy)pyridazin-3-yl]-1H-imidazol-4-yl}methyl)trimethylazanium trifluoroacetate]",0.12

# The remaining lines, values ahead:
row,Ki [nM],Structure (SMILES)
1,0.14,"Cc1nnn(-c2ccc(C(F)F)cc2)c1COc1ccc(-n2cnc(C(C)(C)O)c2)nn1 [Example 39, 2-{1-[6-({1-[4-(difluoromethyl)phenyl]-4-methyl-1H-1,2,3-triazol-5-yl}methoxy)pyridazin-3-yl]-1H-imidazol-4-yl}propan-2-ol]"
2,0.11,Cc1nnn(-c2ccc(C(F)F)cc2)c1COc1ccc(-c2cnn(C)c2)nn1 [Example 5]
3,0.35,Cc1nnn(-c2ccc(C(F)F)cc2)c1COc1ccc(-n2cc(C(F)(F)F)cn2)nn1 [Example 25]
4,0.036,"Cc1nnn(-c2ccc(C(F)F)cc2)c1COc1ccc(-n2cnc(C(N)=O)c2)nn1 [Example 27, 1-[6-({1-[4-(difluoromethyl)phenyl]-4-methyl-1H-1,2,3-triazol-5-yl}methoxy)pyridazin-3-yl]-1H-imidazole-4-carboxamide]"
5,0.21,Cc1nnn(-c2ccc(C(F)F)cc2)c1COc1ccc(-n2cc(C#N)cn2)nn1 [Example 31]
6,0.38,Cc1nnn(-c2ccc(C(F)F)cc2)c1COc1ccc(-n2cnc(S(C)(=O)=O)c2)nn1 [Example 19]
7,0.2,"Cc1nnn(-c2ccc(C(F)F)cc2)c1COc1ccc(-n2cnc(CO)c2)nn1 [Example 38, {1-[6-({1-[4-(difluoromethyl)phenyl]-4-methyl-1H-1,2,3-triazol-5-yl}methoxy)pyridazin-3-yl]-1H-imidazol-4-yl}methanol]"
8,0.056,Cc1nnn(-c2ccc(C(F)F)cc2)c1COc1ccc(-n2cnc(Cl)c2)nn1 [Example 18]
9,0.16,Cc1nnn(-c2ccc(C(F)F)cc2)c1COc1ccc(-n2cnc(C(C)O)c2)nn1 (centres unmarked) [Example 40]
10,0.071,CNC(=O)c1cn(-c2ccc(OCc3c(C)nnn3-c3ccc(C(F)F)cc3)nn2)cn1 [Example 14]
11,0.039,CC(=O)c1cn(-c2ccc(OCc3c(C)nnn3-c3ccc(C(F)F)cc3)nn2)cn1 [Example 32]
12,0.163,Cc1ncn(-c2ccc(OCc3c(C)nnn3-c3ccc(C(F)F)cc3)nn2)n1 [Example 33]
13,0.11,Cc1nnn(-c2ccc(C(F)F)cc2)c1COc1ccc(-n2cnc(C(F)F)c2)nn1 [Example 15]
14,0.089,Cc1nnn(-c2ccc(C(F)F)cc2)c1COc1ccc(-n2cnc(C=O)c2)nn1 [Example 17]
15,0.063,COC(=O)c1cn(-c2ccc(OCc3c(C)nnn3-c3ccc(C(F)F)cc3)nn2)cn1 [Example 29]
16,0.81,"Cc1nnn(-c2ccc(C(F)F)cc2)c1COc1ccc(-n2cnc(C(=O)O)c2)nn1 [Example 37, 1-[6-({1-[4-(difluoromethyl)phenyl]-4-methyl-1H-1,2,3-triazol-5-yl}methoxy)pyridazin-3-yl]-1H-imidazole-4-carboxylic acid]"
17,0.047,Cc1nnn(-c2ccc(C(F)F)cc2)c1COc1ccc(-n2ccc(C(N)=O)n2)nn1 [Example 21]
18,0.009,Cc1nnn(-c2ccc(C(F)F)cc2)c1COc1ccc(-n2ccc(C#N)n2)nn1 [Example 20]
19,0.057,"Cc1nnn(-c2ccc(C(F)F)cc2)c1COc1ccc(-n2cnc(CN)c2)nn1 [Example 35, {1-[6-({1-[4-(difluoromethyl)phenyl]-4-methyl-1H-1,2,3-triazol-5-yl}methoxy)pyridazin-3-yl]-1H-imidazol-4-yl}methanamine]"
